Test results published in US20250129054A1 (Terran Biosciences Inc., priority 2022, published 2025).

Test: Serial tail vein bleed PK study in SD rats: methylone measured in plasma after IV or oral methylone or oral methylone prodrugs
Type: in vivo, Sprague Dawley rats
Conditions: 10 mg/kg, rat
Description: A pharmacokinetic (PK) study was performed in three male Sprague-Dawley (SD) rats following intravenous (IV) and oral (PO) administration of methylone at 1 mg/kg (IV) and 10 mg/kg (PO) respectively, or test compounds (prodrugs of methylone) at 10 mg/kg (PO). Parent compound (methylone) was measured in plasma.
Samples were sent for method optimization and measurement of parent compound (methylone) via unique calibration lines and following acceptance QC's. Dose formulation concentrations were also measured, and PK parameters were determined (Cmax (ng/mL), Tmax (hr), Cl (ml/min/kg), Vdss (L/kg), t½(hr), AUC0-t (ng/mL*hr), AUC0-inf (ng/mL*hr), MIRT (hr), Bioavailability ([…]) where warranted) using WinNon Lin software. Data (including bioanalytical results and assay performance) were reported in a tabulated format.
Formulation for PO Administration: For PO dosing, the prodrug was formulated in 10% DMSO/20% PEG400/70% water to a concentration of 2 mg free metabolite material/mL. This provided a dose of 10 mg free metabolite/kg when the prodrug was administered PO in 5 mL/kg dosing volumes.
Formulation for IV administration: For IV dosing, rac-methylone was formulated as solution in saline to a concentration of 0.5 mg free metabolite material/mL. This provided a dose of 1 mg free metabolite/kg when administered IV in 2 mL/kg dosing volumes.
The pharmacokinetic properties of the synthesized methylone prodrugs after oral administration in a rat model were assessed. The concentration of methylone was measured in each rat at various sampling timepoints after IV or oral administration of rac-methylone or the synthesized methylone prodrugs to rats.
Dose formulations were made at equivalent concentrations of active compound (methylone) adjusted for molecular weight of the compounds. The synthesized methylone prodrugs or analogs were dosed at 10 mg/kg oral (PO) nominal dose. Nominal doses were used in PK parameter determinations. The parent compound (methylone) was dosed at 1 mg/kg intravenous (IV) and 10 mg/kg (PO).

[1] = 0.500 h after oral dosing of the prodrug, individual animals
[2] = 0.500 h after oral dosing of the prodrug, mean
[3] = 1.00 h after oral dosing of the prodrug, individual animals
[4] = 1.00 h after oral dosing of the prodrug, mean
[5] = 2.00 h after oral dosing of the prodrug, individual animals
[6] = 2.00 h after oral dosing of the prodrug, mean
[7] = 4.00 h after oral dosing of the prodrug, individual animals
[8] = 4.00 h after oral dosing of the prodrug, mean
[9] = 7.00 h after oral dosing of the prodrug, individual animals
[10] = 7.00 h after oral dosing of the prodrug, mean
[11] = 24.0 h after oral dosing of the prodrug, individual animals
[12] = 24.0 h after oral dosing of the prodrug, mean

## CC(C(=O)c1ccc2c(c1)OCO2)N(C)C(=O)CCCC(=O)O (stereo not drawn) [Compound 8D, 4-{[2-(2H-1,3-Benzodioxol-5-yl)-1-methyl-2-oxo-ethyl]-N-methylcarbamoyl}butyric acid]
[1]
  Plasma Concentrations of metabolite methylone: BLQ (Below Lower Limit of Quantification (0.5 ng/mL))
[2]
  Plasma Concentrations of metabolite methylone: BLQ (Below Lower Limit of Quantification (0.5 ng/mL))
[3]
  Plasma Concentrations of metabolite methylone: BLQ (Below Lower Limit of Quantification (0.5 ng/mL))
[4]
  Plasma Concentrations of metabolite methylone: BLQ (Below Lower Limit of Quantification (0.5 ng/mL))
[5]
  Plasma Concentrations of metabolite methylone: BLQ (Below Lower Limit of Quantification (0.5 ng/mL))
[6]
  Plasma Concentrations of metabolite methylone: BLQ (Below Lower Limit of Quantification (0.5 ng/mL))
[7]
  Plasma Concentrations of metabolite methylone: BLQ (Below Lower Limit of Quantification (0.5 ng/mL))
[8]
  Plasma Concentrations of metabolite methylone: BLQ (Below Lower Limit of Quantification (0.5 ng/mL))
[9]
  Plasma Concentrations of metabolite methylone: BLQ (Below Lower Limit of Quantification (0.5 ng/mL))
[10]
  Plasma Concentrations of metabolite methylone: BLQ (Below Lower Limit of Quantification (0.5 ng/mL))
[11]
  Plasma Concentrations of metabolite methylone: BLQ (Below Lower Limit of Quantification (0.5 ng/mL))
[12]
  Plasma Concentrations of metabolite methylone: BLQ (Below Lower Limit of Quantification (0.5 ng/mL))

## CC(C)COC(=O)N(C)C(C)C(=O)c1ccc2c(c1)OCO2 (stereo not drawn) [Compound 1D, iso-Butyl N-[2-(1,3-benzodioxol-5-yl)-1-methyl-2-oxo-ethyl]-N-methyl-carbamate]
[1]
  Plasma Concentrations of metabolite methylone: BLQ (Below Lower Limit of Quantification (0.5 ng/mL))
[2]
  Plasma Concentrations of metabolite methylone: BLQ (Below Lower Limit of Quantification (0.5 ng/mL))
[3]
  Plasma Concentrations of metabolite methylone: BLQ (Below Lower Limit of Quantification (0.5 ng/mL))
[4]
  Plasma Concentrations of metabolite methylone: BLQ (Below Lower Limit of Quantification (0.5 ng/mL))
[5]
  Plasma Concentrations of metabolite methylone: BLQ (Below Lower Limit of Quantification (0.5 ng/mL))
[6]
  Plasma Concentrations of metabolite methylone: BLQ (Below Lower Limit of Quantification (0.5 ng/mL))
[7]
  Plasma Concentrations of metabolite methylone: BLQ (Below Lower Limit of Quantification (0.5 ng/mL))
[8]
  Plasma Concentrations of metabolite methylone: BLQ (Below Lower Limit of Quantification (0.5 ng/mL))
[9]
  Plasma Concentrations of metabolite methylone: BLQ (Below Lower Limit of Quantification (0.5 ng/mL))
[10]
  Plasma Concentrations of metabolite methylone: BLQ (Below Lower Limit of Quantification (0.5 ng/mL))
[11]
  Plasma Concentrations of metabolite methylone: BLQ (Below Lower Limit of Quantification (0.5 ng/mL))
[12]
  Plasma Concentrations of metabolite methylone: BLQ (Below Lower Limit of Quantification (0.5 ng/mL))

## CC(C(=O)c1ccc2c(c1)OCO2)N(C)C(=O)C(C)(C)C (stereo not drawn) [PG, N-[2-(1,3-Benzodioxol-5-yl)-1-methyl-2-oxo-ethyl]-N-2,2-trimethyl-propanamide]
[1]
  Plasma Concentrations of metabolite methylone: BLQ (Below Lower Limit of Quantification (0.5 ng/mL))
[2]
  Plasma Concentrations of metabolite methylone: BLQ (Below Lower Limit of Quantification (0.5 ng/mL))
[3]
  Plasma Concentrations of metabolite methylone: BLQ (Below Lower Limit of Quantification (0.5 ng/mL))
[4]
  Plasma Concentrations of metabolite methylone: BLQ (Below Lower Limit of Quantification (0.5 ng/mL))
[5]
  Plasma Concentrations of metabolite methylone: BLQ (Below Lower Limit of Quantification (0.5 ng/mL))
[6]
  Plasma Concentrations of metabolite methylone: BLQ (Below Lower Limit of Quantification (0.5 ng/mL))
[7]
  Plasma Concentrations of metabolite methylone: BLQ (Below Lower Limit of Quantification (0.5 ng/mL))
[8]
  Plasma Concentrations of metabolite methylone: BLQ (Below Lower Limit of Quantification (0.5 ng/mL))
[9]
  Plasma Concentrations of metabolite methylone: BLQ (Below Lower Limit of Quantification (0.5 ng/mL))
[10]
  Plasma Concentrations of metabolite methylone: BLQ (Below Lower Limit of Quantification (0.5 ng/mL))
[11]
  Plasma Concentrations of metabolite methylone: BLQ (Below Lower Limit of Quantification (0.5 ng/mL))
[12]
  Plasma Concentrations of metabolite methylone: BLQ (Below Lower Limit of Quantification (0.5 ng/mL))
